Measurements reported in patent US20190145961A1, “PPAR AGONIST OR LXR AGONIST FOR USE IN THE TREATMENT OF SYSTEMIC LUPUS ERYTHEMATOSUS BY MODULATION OF LAP ACTIVITY” (Washington University, priority 2016, published 2019).

Key:
Type in all cases: cell-based
[1] = system: Bone marrow-derived macrophages (BMM) from Rubicon−/− mice; test: IL-10 production by Rubicon−/− bone marrow-derived macrophages co-cultured with apoptotic thymocytes (ELISA); details: 60 μM; Rubicon-deficient (LAP-deficient) BMM, apoptotic thymocytes 10:1, 18 hours co-culture, supernatant ELISA; versus control treatment (FIG. 1C)
Description: (§1) Bone marrow-derived macrophages (BMM) were generated as previously described from Rubicon−/− mice and wild-type littermates. Macrophages were co-cultured with UV-irradiated apoptotic thymocytes (at a ratio of 10 apoptotic cells:1 macrophage) in the presence or absence of PPARγ agonists Rosiglitazone (ROS, 20 or 60 μM) or Tesaglitazar (TES, 6 or 20 μM). NT indicates no treatment. After 18 hours of co-culture, supernatants were collected and analyzed for IL-10 production via ELISA (FIG. 1A). […] Thus, PPAR agonists can be effective at restoring the LAP phenotype in LAP-deficient cells.
Bone marrow-derived macrophages (BMM) were generated as previously described from Rubicon−/− mice and wild-type littermates. […] NT indicates no treatment. After 18 hours of co-culture, supernatants were collected and analyzed for IL-10 production via ELISA FIG. 1C). […] Thus, LXR agonists can be effective at restoring the LAP phenotype in LAP-deficient cells.
Bone marrow-derived macrophages (BMDMs) were generated from bone marrow progenitors obtained from littermates. Freshly prepared bone marrow cells were cultured in DMEM medium supplemented with 10% heat-inactivated FCS, 2 mM L-glutamine, 10 mM HEPES buffer, 50 μg/ml penicillin, and non-essential amino acids in the presence of 20 ng/ml rmM-CSF (Peprotech) for 6 days. […]

[2] = system: bone marrow derived-macrophages from Rbcn+/+ and Rbcn−/− mice; test: Cytokine production by Rbcn+/+ and Rbcn−/− bone marrow derived-macrophages stimulated with apoptotic thymocytes (Luminex); details: apoptotic thymocytes (1:10), 18 hours, supernatants
Description: (§2) 10^6 bone marrow derived-macrophages from Rbcn+/+ and Rbcn−/− mice were stimulated with apoptotic thymocytes (1:10) in vitro for 18 hours, in the presence of GW501516 at different concentrations (+6 μM, ++20 μM, +++60 μM). Collected supernatants were assayed for cytokine production using Luminex technology.
as §2, with “(++20” for “(+6 μM, ++20”
Supernatants were collected from macrophages fed with apoptotic thymocytes for 24 hours. Cytokines released into supernatant were analyzed by Luminex technologies (Millipore). Serum was collected from animals was analyzed by Luminex technologies (Millipore).

[3] = system: Bone marrow-derived macrophages (BMM) from LysM-Cre+ ATG7f/f mice; test: IL-10 production by LysM-Cre+ ATG7f/f bone marrow-derived macrophages co-cultured with apoptotic thymocytes (ELISA); details: 20 μM; LysM-Cre+ ATG7f/f (LAP-deficient) BMM, apoptotic thymocytes 10:1, 18 hours co-culture, supernatant ELISA; versus control treatment (FIG. 1B)
Description: as §1, with “LysM-Cre− ATG7f/f” for “Rubicon−/− mice”, “LysM-Cre+ ATG7f/f mice.” for “wild-type littermates.”, “PPARβ/δ agonist GW0742 (GW,” for “PPARγ agonists Rosiglitazone (ROS, 20 or 60 μM) or Tesaglitazar (TES, 6 or”, “1B).” for “1A).”
Bone marrow-derived macrophages (BMDMs) were generated from bone marrow progenitors obtained from littermates. Freshly prepared bone marrow cells were cultured in DMEM medium supplemented with 10% heat-inactivated FCS, 2 mM L-glutamine, 10 mM HEPES buffer, 50 μg/ml penicillin, and non-essential amino acids in the presence of 20 ng/ml rmM-CSF (Peprotech) for 6 days. Nonadherent cells were removed on day 6, and adherent macrophages were detached from plates and re-plated for experimental use.
Apoptosis was induced in wild-type C57Bl/6 thymocytes by UV irradiation (20 J/m^2). Thymocytes were washed twice with PBS prior to experimental use.

CC(C)CC[C@@H](O)[C@@H](C)[C@H]1CC[C@H]2[C@@H]3CC=C4C[C@@H](O)CC[C@]4(C)[C@H]3CC[C@]12C [22(R)-hydroxycholesterol]
IL-10 production [1]: increased IL-10 production

Cc1cc(SCc2sc(-c3ccc(C(F)(F)F)cc3)nc2C)ccc1OCC(=O)O [GW501516]
production of inflammatory cytokines in response to AT in vitro ([2]; 6, 20, 60 μM, Luminex (FIG. 7)): reduces production of inflammatory cytokines
IL-10 production in response to apoptotic cells in LAP-deficient macrophages ([2]; 20, 60 μM, Luminex (FIG. 8)): restores IL-10 production

Cc1cc(SCc2sc(-c3ccc(C(F)(F)F)c(F)c3)nc2C)ccc1OCC(=O)O [GW0742]
IL-10 production [3]: increased IL-10 production
